Results as given in patent US20230263826A1, “Compositions and Methods for Treatment and Prevention of Type 1 Diabetes” (The UAB Research Foundation, priority 2021, published 2023).

Test system: female NOD mice
Assay: T1D incidence in female NOD mice administered FKGK18 (weekly blood glucose monitoring)
Assay type: in vivo, mouse
Description: FIGS. 1A-1M show the effects of temporal FKGK18 regimen on T1D incidence and islet phenotype, wherein female NOD mice were administered FKGK18 (20 mg/kg, 3 × weekly) or vehicle (PBS-T) starting at 4 or 8 weeks of age. FIGS. 1A and 1B show diabetes incidence; blood glucose was monitored weekly in the 4-week (FIG. 1A; n = 17 and 15 for PBS-T and FKGK18 groups, respectively) and 8-week (FIG. 1B; n = 15 each in the PBS-T and FKGK18 groups) regimen groups for up to 30 weeks. Two consecutive readings of ≥ 275 mg/dL were recorded as onset of T1D (^†P < 0.05). FIGS. 1C-1F show glucose tolerance test (GTT) results, wherein overnight fasted mice were administered glucose (2 g/kg, i.p.), glucose levels in blood from tail vein were monitored over a 2-hour period, and AUC were generated. FIGS. 1C and 1D show four-week group at 14 weeks of age; n = 5 each in the PBS-T and FKGK18 groups. FIGS. 1E and 1F show eight-week group at 25 weeks of age; n = 7 and 5 for PBS-T and FKGK18 groups, respectively. FIGS. 1G-1I show phenotype parameters in the 8-week regimen group. […] FIGS. 1H and 1I show β Cell mass (PBS-T, n = 15; FKGK18, n = 14) (FIG. 1H) and circulating insulin (n = 15 in each group) (FIG. 1I) were determined at sacrifice (PBS-T, 14-30 weeks of age; FKGK18, 16-36 weeks of age). FIGS. 1J and 1K show islet infiltration; paraffin sections (10 µm) of pancreas were prepared and stained with H&E. Percent infiltration for each islet was calculated as the value of noninfiltrated area subtracted from total islet area (% infiltrate = 100 × [(total area - noninfiltrated area)/(total area)]) using ImageJ software. (PBS-T, n = 14 and 166 islets; FKGK18, n = 15 and 260 islets). […] FIGS. 1L and 1M show islet immune cell phenotype; paraffin sections (10 µm) of pancreas were prepared and stained for CD4+-T cells or B (B220) cells. Data presented are mean ± SEM of CD4+ T cells or B cells per islet. […] Statistical analyses: (FIGS. 1A and 1B) Mantel-Cox test; (FIGS. 1D-1M) Student’s t test.
FIGS. 2A-2E show the effects of FKGK18-withdrawal regimen on T1D incidence and glucose tolerance, wherein female NOD mice were administered FKGK18 (20 mg/kg, 3 × weekly, n = 18) or vehicle (PBS-T, n = 17) starting at 10 days of age and until 14 weeks of age. […] FIGS. 2B and 2D show glucose tolerance test (GTT) results, assessed at 14 (FIG. 2B) and 25 (FIG. 2D) weeks of age (data are presented as mean ± SEM), as described in FIG. 1. FIGS. 2C and 2E show corresponding AUC. […]
Blood glucose levels were measured weekly via tail vein blood draw (2 µL) with Breeze 2 Blood Glucose Monitoring System (Bayer HealthCare). Diabetes incidence was based on 2 consecutive blood glucose readings ≥ 275 mg/dL, at which time the mouse was euthanized. […]

O=C(CCCCc1ccc2ccccc2c1)C(F)(F)F [FKGK18]
mice that remained diabetes free (FKGK18 20 mg/kg i.p. 3 times/week starting at 4 weeks of age, monitored up to 30 weeks, PBS-T 80% T1D incidence): 40% | T1D incidence vs corresponding PBS-T group (FKGK18 20 mg/kg i.p. 3 times/week starting at 8 weeks of age, modest delay): not significantly different | NOD that developed T1D (FKGK18 20 mg/kg i.p. 3 times/week starting at 10 days of age, by 25-30 weeks of age, vehicle 80%-90% diabetic, data not shown): 10%-15% | decreased T1D incidence after FKGK18 withdrawal (FKGK18 from 10 days until 14 weeks of age, then withdrawn, monitored up to 30 weeks): not evident
